Results as given in EP3283483B1, “CRYSTALLINE ELIGLUSTAT HYDROCHLORIDE” (Sandoz AG, priority 2015, dated 2016).
Where a name gives a salt, the structure may show the parent alone.

How the values were obtained:
[1] = Storage stability of the crystalline form, XRPD analysis after storage; format: physicochemical; conditions: stored for one week at 40°C / 75% relative humidity
Description: XRPD analyses were performed on crystalline eliglustat hydrochloride from example 1 using a Panalytical Xpert Pro diffractometer equipped with a Cu X-ray tube and a Pixcel detector system. The isothermal samples were analysed in transmission mode and held between low density polyethylene films. The following XRPD program was used: range 3-40°2θ, step size 0.013°, counting time 99sec, ∼22min run time.
Crystalline eliglustat hydrochloride from example 1 was stored for one week at 40°C / 75% relative humidity.

[2] = Aqueous solubility determined gravimetrically by slurrying in water; format: physicochemical
Description: Aqueous solubility was determined gravimetrically by slurrying Eliglustat hydrochloride from example 1 in water at 22°C. The pH of Eliglustat HCl in water was 7.6. A filtered aliquot was transferred to a pre-weighed vial and the solution evaporated.

solubility ([2]; pH 7.6, thermodynamic from solid, water, 22°C, gravimetric, pH in water 7.6): 33 mg/mL | pH of Eliglustat HCl in water ([2]; slurry in water at 22°C): 7.6
Compound: CCCCCCCC(=O)N[C@H](CN1CCCC1)[C@H](O)c1ccc2c(c1)OCCO2 [Eliglustat hydrochloride, (1R,2R)-octanoic acid[2-(2',3'-dihydro-benzo[1,4]dioxin-6'-yl)-2-hydroxy-1-pyrrolidin-1-ylmethyl-ethyl]-amide]
stability of crystalline form after storage (XRPD) [1]: remained stable with regard to its crystalline form
